# Earlier results in patent US20190269662A1, “SOLID COMPOSITIONS OF ACTIVES, PROCESSES FOR PREPARING SAME AND USES OF SUCH SOLID COMPOSITIONS” (The University of Liverpool, priority 2018, published 2019).
# Settings: background statement; cited from earlier work
smiles,measurement,value
Cc1nnc(C(C)C)n1[C@@H]1C[C@H]2CC[C@@H](C1)N2CC[C@H](NC(=O)C1CCC(F)(F)CC1)c1ccccc1 [maraviroc],oral bioavailability,approximately 33%
